Reference: US8575211B2, “Synergistic combination of analgesic compounds” (Biocodex, priority 2008, dated 2013)
Counter-ions that a name gives are not always drawn. Like-named read-outs stand apart in the source and are kept apart here.

Legend:
[1] = tested on: abdominal cramps induced in mice by acetic acid; assay: abdominal cramps induced in mice by intraperitoneal acetic acid, products by the subcutaneous route; assay type: in vivo; details: for ED50: Mus musculus, product alone, subcutaneous, 30 min before acetic acid i.p., read-out: ED50 (dose producing 50% reduction in the number of cramps)
Protocol: The analgesic effect of a nefopam-ibuprofen combination was studied in the model of abdominal cramps induced in mice by the intraperitoneal administration of acetic acid. This model of pain induced by a chemical substance corresponds to acute, visceral, inflammatory pain. Male CD1 mice (C. River breed) weighing from 25 to 30 grams are used after an acclimatization of at least 7 days in the animal facility (t°=22±2; hygrometry=50±20%; food […]-darkness: […])). On the day of the experiment, the non-fasting mice are weighed, marked and divided at random into groups of 10. The acetic acid solution (Sigma) is prepared at 0.6% (0.1 ml/10 g) i.e. 60 mg of acetic acid in 10 ml of NaCl at 0.9%. At t=0, the mouse receives the product under study or the carrier liquid by the subcutaneous route (0.1 ml/10 g). At t=30 minutes, the acetic acid is injected by the intraperitoneal route (0.1 ml/10 g). A count is taken of the number of abdominal cramps from 5 to 20 minutes after the injection of acetic acid. Clear abdominal cramps characterized by stretching of the hind paws and/or hollowing of the flanks with writhing are regarded as positive. Nefopam hydrochloride (Biocodex, lot 38) (referred to hereinafter simply as nefopam) is dissolved in distilled water or in NaCl at 0.9%. The ibuprofen (Sigma, ref 1-4883) is suspended in Tween 80 at 1%. The test used is a variance analysis based on 3 groups and a Student's t test for 2 groups. The treated group(s) that differ(s) from the control group is (are) then determined. The effective doses for 50% antinociceptive effect (ED50) are calculated using the PharmToolsPro program (version 1.1.27, […] Group Inc.) in accordance with the Tallarida (2000) method Drugs synergism and dose-effect data analysis CRC Press). At least 10 mice are used for each dose, and at least 3 doses are used to determine the dose-response curve. The dose that produces 50% antinociceptive effect (50% reduction in the number of cramps) is calculated by a standard linear regression analysis of the dose-response curve. The interaction is evaluated by an isobolographic analysis of the co-administration of a combination of doses at a fixed ratio according to Tallarida (2000) op. cit., Tallarida et al. (1989) Life Sci. 45:947-961 and Tallarida et al. (1997) Life Sci. 61:PL417-PL425. The isobologram is constructed by joining the ED50 of the ibuprofen with that of the nefopam in order to obtain the additivity line. The ED50 of the combination is determined by linear regression analysis of the dose-response curve and it is compared by at test with a theoretical additive ED50 obtained using the PharmToolsPro software.

[2] = tested on: abdominal cramps induced in mice by acetic acid; details: oral route, cited from earlier work

## CN1CCOC(c2ccccc2)c2ccccc2C1 (stereo not shown) [Nefopam, Nefopam hydrochloride]
[1]
  ED50: 2.4 ± 0.215 mg/kg
[1]; nefopam 0.3 mg/kg s.c.
  % variation of number of cramps: −9%
  Number of cramps (mean ± sem): 33.6 ± 3.8
[1]; nefopam 1.0 mg/kg s.c.
  % variation of number of cramps: −25%
  Number of cramps (mean ± sem): 28.0 ± 6.3
[1]; nefopam 3.0 mg/kg s.c.
  % variation of number of cramps: −55%
  Number of cramps (mean ± sem): 16.7 ± 2.0
[1]; nefopam 10.0 mg/kg s.c.
  % variation of number of cramps: −81%
  Number of cramps (mean ± sem): 7.1 ± 1.7
[1]; nefopam 20.0 mg/kg s.c.
  % variation of number of cramps: −98%
  Number of cramps (mean ± sem): 0.6 ± 0.3

## CC(C)Cc1ccc(C(C)C(=O)O)cc1 (stereo not shown) [Ibuprofen, ibuprofen]
[1]
  ED50: 18.6 ± 2.4 mg/kg
[1]; ibuprofen 1 mg/kg s.c.
  % variation of number of cramps: +7%
  Number of cramps (mean ± sem): 40.2 ± 3.2
[1]; ibuprofen 3 mg/kg s.c.
  % variation of number of cramps: +14%
  Number of cramps (mean ± sem): 43.0 ± 6.6
[1]; ibuprofen 10 mg/kg s.c.
  % variation of number of cramps: −29%
  Number of cramps (mean ± sem): 26.8 ± 3.9
[1]; ibuprofen 20 mg/kg s.c.
  % variation of number of cramps: −41%
  Number of cramps (mean ± sem): 22.0 ± 2.0
[1]; ibuprofen 30 mg/kg s.c.
  % variation of number of cramps: −68%
  Number of cramps (mean ± sem): 12.1 ± 2.7
[1]; ibuprofen 50 mg/kg s.c.
  % variation of number of cramps: −84%
  Number of cramps (mean ± sem): 5.9 ± 1.3
[1]; ibuprofen 100 mg/kg s.c.
  % variation of number of cramps: −84%
  Number of cramps (mean ± sem): 6.0 ± 1.4
[2]; Dolezal & Kusiak (2002)
  dose from which antinociceptive activity is significant: ≥ 30 mg/kg
[2]; Jones et al. (2005)
  ED50: 95 mg/kg
